This note sets out measurements from ChEMBL document CHEMBL2010748, “Structure-Activity Relationship Studies of HIV-1 Integrase Oligonucleotide Inhibitors” (ACS Med Chem Lett, 2011).

pIC50: −log10 of the molar value.

Sequence of Human immunodeficiency virus type 1 integrase (Q7ZJM1 whole entry): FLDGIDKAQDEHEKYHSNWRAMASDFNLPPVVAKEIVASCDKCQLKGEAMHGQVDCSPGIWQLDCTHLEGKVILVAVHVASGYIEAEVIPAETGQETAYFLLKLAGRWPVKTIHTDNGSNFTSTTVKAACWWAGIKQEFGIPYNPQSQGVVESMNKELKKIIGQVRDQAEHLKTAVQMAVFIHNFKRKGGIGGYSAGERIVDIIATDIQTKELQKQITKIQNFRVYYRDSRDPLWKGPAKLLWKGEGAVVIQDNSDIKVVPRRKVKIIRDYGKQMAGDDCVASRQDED

The assay addresses Human immunodeficiency virus type 1 integrase (Human immunodeficiency virus 1, UniProt Q7ZJM1). The assay can be described thus: Inhibition of Human immunodeficiency virus 1 integrase 3'-processing activity expressed in Escherichia coli using 21-mer DNA and Mg2+ after 2 hrs by polyacrylamide gel electrophoresis.
By pIC50 is commonly meant the negative decadic logarithm of the IC50, by convention in mol/L. The low end stands for a high IC50, the high end for a low IC50. In the case of `COc1cc2c(-c3cc(C(=O)NCCCCCCOP(=O)(O)OC[C@H]4O[C@@H](n5cnc6c(=O)[nH]c(N)nc65)C[C@@H]4OP(=O)(O)OC[C@H]4O[C@@H](n5cnc6c(=O)[nH]c(N)nc65)C[C@@H]4OP(=O)(O)OC[C@H]4O[C@@H](n5cc(C)c(=O)[nH]c5=O)C[C@@H]4OP(=O)(O)OC[C@H]4O[C@@H](n5cc(C)c(=O)[nH]c5=O)C[C@@H]4OP(=O)(O)OC[C@H]4O[C@@H](n5cc(C)c(=O)[nH]c5=O)C[C@@H]4OP(=O)(O)OC[C@H]4O[C@@H](n5cc(C)c(=O)[nH]c5=O)C[C@@H]4OP(=O)(O)OC[C@H]4O[C@@H](n5cc(C)c(=O)[nH]c5=O)C[C@@H]4OP(=O)(O)OC[C@H]4O[C@@H](n5cnc6c(=O)[nH]c(N)nc65)C[C@@H]4OP(=O)(O)OC[C@H]4O[C@@H](n5cc(C)c(=O)[nH]c5=O)C[C@@H]4OP(=O)(O)OC[C@H]4O[C@@H](n5cnc6c(=O)[nH]c(N)nc65)C[C@@H]4OP(=O)(O)OC[C@H]4O[C@@H](n5cc(C)c(=O)[nH]c5=O)C[C@@H]4O)ccc3C(=O)O)c3cc(OC)c(=O)c(Cl)c-3oc2c(Cl)c1O`, the pIC50 was 6.51.
In turn, `CCCCCCCC/C=C\CCCCCCCC(=O)NCCCOCC(O)COP(=O)(S)O[C@H]1[C@@H](OC)[C@H](n2ccc(=O)[nH]c2=O)O[C@@H]1COP(=O)(S)O[C@H]1[C@@H](OC)[C@H](n2cnc3c(=O)[nH]c(N)nc32)O[C@@H]1COP(=O)(S)O[C@H]1[C@@H](OC)[C@H](n2ccc(=O)[nH]c2=O)O[C@@H]1COP(=O)(S)O[C@H]1[C@@H](OC)[C@H](n2cnc3c(=O)[nH]c(N)nc32)O[C@@H]1COP(=O)(S)O[C@H]1[C@@H](OC)[C@H](n2ccc(=O)[nH]c2=O)O[C@@H]1COP(=O)(S)O[C@H]1[C@@H](OC)[C@H](n2ccc(=O)[nH]c2=O)O[C@@H]1COP(=O)(S)O[C@H]1[C@@H](OC)[C@H](n2ccc(=O)[nH]c2=O)O[C@@H]1COP(=O)(S)O[C@H]1[C@@H](OC)[C@H](n2ccc(=O)[nH]c2=O)O[C@@H]1COP(=O)(S)O[C@H]1[C@@H](OC)[C@H](n2ccc(=O)[nH]c2=O)O[C@@H]1COP(=O)(S)O[C@H]1[C@@H](OC)[C@H](n2cnc3c(=O)[nH]c(N)nc32)O[C@@H]1COP(=O)(S)O[C@H]1[C@@H](OC)[C@H](n2cnc3c(=O)[nH]c(N)nc32)O[C@@H]1COP(=O)(S)OCCCCCCNC(=O)c1cc(Cl)c(C(=O)O)c(-c2c3cc(Cl)c(=O)c(Cl)c-3oc3c(Cl)c(O)c(Cl)cc23)c1Cl` (some centres not stated) gave a pIC50 of 7.70.
Turning to `CO[C@@H]1[C@H](O)[C@@H](COP(=O)(O)O[C@H]2[C@@H](OC)[C@H](n3cnc4c(=O)[nH]c(N)nc43)O[C@@H]2COP(=O)(O)O[C@H]2[C@@H](OC)[C@H](n3ccc(=O)[nH]c3=O)O[C@@H]2COP(=O)(O)O[C@H]2[C@@H](OC)[C@H](n3cnc4c(=O)[nH]c(N)nc43)O[C@@H]2COP(=O)(O)O[C@H]2[C@@H](OC)[C@H](n3ccc(=O)[nH]c3=O)O[C@@H]2COP(=O)(O)O[C@H]2[C@@H](OC)[C@H](n3ccc(=O)[nH]c3=O)O[C@@H]2COP(=O)(O)O[C@H]2[C@@H](OC)[C@H](n3ccc(=O)[nH]c3=O)O[C@@H]2COP(=O)(O)O[C@H]2[C@@H](OC)[C@H](n3ccc(=O)[nH]c3=O)O[C@@H]2COP(=O)(O)O[C@H]2[C@@H](OC)[C@H](n3ccc(=O)[nH]c3=O)O[C@@H]2COP(=O)(O)O[C@H]2[C@@H](OC)[C@H](n3cnc4c(=O)[nH]c(N)nc43)O[C@@H]2COP(=O)(O)O[C@H]2[C@@H](OC)[C@H](n3cnc4c(=O)[nH]c(N)nc43)O[C@@H]2COP(=O)(O)OCCCCCCNC(=O)c2cc(Cl)c(C(=O)O)c(-c3c4cc(Cl)c(=O)c(Cl)c-4oc4c(Cl)c(O)c(Cl)cc34)c2Cl)O[C@H]1n1ccc(=O)[nH]c1=O`, the pIC50 was 7.28.
Consider `Cc1cn([C@H]2C[C@H](OP(=O)(O)OC[C@H]3O[C@@H](n4cc(C)c(=O)[nH]c4=O)C[C@@H]3OP(=O)(O)OC[C@H]3O[C@@H](n4cc(C)c(=O)[nH]c4=O)C[C@@H]3OP(=O)(O)OC[C@H]3O[C@@H](n4cnc5c(=O)[nH]c(N)nc54)C[C@@H]3OP(=O)(O)OC[C@H]3O[C@@H](n4cc(C)c(=O)[nH]c4=O)C[C@@H]3OP(=O)(O)OC[C@H]3O[C@@H](n4cnc5c(=O)[nH]c(N)nc54)C[C@@H]3OP(=O)(O)OC[C@H]3O[C@@H](n4cc(C)c(=O)[nH]c4=O)C[C@@H]3O)[C@@H](COP(=O)(O)O[C@H]3C[C@H](n4cc(C)c(=O)[nH]c4=O)O[C@@H]3COP(=O)(O)O[C@H]3C[C@H](n4cc(C)c(=O)[nH]c4=O)O[C@@H]3COP(=O)(O)O[C@H]3C[C@H](n4cnc5c(=O)[nH]c(N)nc54)O[C@@H]3COP(=O)(O)O[C@H]3C[C@H](n4cnc5c(=O)[nH]c(N)nc54)O[C@@H]3COP(=O)(O)OCCCCCCNC(=O)c3ccc(C(=O)O)c(-c4c5ccc(=O)cc-5oc5cc(O)ccc45)c3)O2)c(=O)[nH]c1=O`, for which the pIC50 was 6.51.
As for `Cc1cn([C@H]2C[C@H](O)[C@@H](COP(=O)(O)OCCCOP(=O)(O)OCCCOP(=O)(O)OCCCOP(=O)(O)OCCCOP(=O)(O)OCCCOP(=O)(O)OCCCOP(=O)(O)OCCCOP(=O)(O)OCCCOP(=O)(O)OCCCOP(=O)(O)OCCCOP(=O)(O)OCCCCCCNC(=O)c3cc(Cl)c(C(=O)O)c(-c4c5cc(Cl)c(=O)c(Cl)c-5oc5c(Cl)c(O)c(Cl)cc45)c3Cl)O2)c(=O)[nH]c1=O`, the pIC50 is 5.89.
In the case of `Cc1cn([C@H]2C[C@H](OP(=O)(O)OC[C@H]3O[C@@H](n4cc(C)c(=O)[nH]c4=O)C[C@@H]3OP(=O)(O)OC[C@H]3O[C@@H](n4cc(C)c(=O)[nH]c4=O)C[C@@H]3OP(=O)(O)OC[C@H]3O[C@@H](n4cnc5c(=O)[nH]c(N)nc54)C[C@@H]3OP(=O)(O)OC[C@H]3O[C@@H](n4cc(C)c(=O)[nH]c4=O)C[C@@H]3OP(=O)(O)OC[C@H]3O[C@@H](n4cnc5c(=O)[nH]c(N)nc54)C[C@@H]3OP(=O)(O)OC[C@H]3O[C@@H](n4cc(C)c(=O)[nH]c4=O)C[C@@H]3O)[C@@H](COP(=O)(O)O[C@H]3C[C@H](n4cc(C)c(=O)[nH]c4=O)O[C@@H]3COP(=O)(O)O[C@H]3C[C@H](n4cc(C)c(=O)[nH]c4=O)O[C@@H]3COP(=O)(O)O[C@H]3C[C@H](n4cnc5c(=O)[nH]c(N)nc54)O[C@@H]3COP(=O)(O)O[C@H]3C[C@H](n4cnc5c(=O)[nH]c(N)nc54)O[C@@H]3COP(=O)(O)OCCCCCCNC(=O)c3cc(Cl)c(C(=O)O)c(-c4c5cc(Cl)c(=O)c(Cl)c-5oc5c(Cl)c(O)c(Cl)cc45)c3Cl)O2)c(=O)[nH]c1=O`, the negative-log IC50 (pIC50) is 7.26.
Regarding `Cc1cn([C@H]2C[C@H](OP(=O)(O)OCCCOP(=O)(O)OCCCOP(=O)(O)OCCCOP(=O)(O)OCCCOP(=O)(O)OCCCOP(=O)(O)OCCCOP(=O)(O)OC[C@H]3O[C@@H](n4cc(C)c(=O)[nH]c4=O)C[C@@H]3O)[C@@H](COP(=O)(O)O[C@H]3C[C@H](n4cc(C)c(=O)[nH]c4=O)O[C@@H]3COP(=O)(O)O[C@H]3C[C@H](n4cnc5c(=O)[nH]c(N)nc54)O[C@@H]3COP(=O)(O)O[C@H]3C[C@H](n4cnc5c(=O)[nH]c(N)nc54)O[C@@H]3COP(=O)(O)OCCCCCCNC(=O)c3cc(Cl)c(C(=O)O)c(-c4c5cc(Cl)c(=O)c(Cl)c-5oc5c(Cl)c(O)c(Cl)cc45)c3Cl)O2)c(=O)[nH]c1=O`, the pIC50 was 6.51.
